In US6835726B2, “Pyrimidine derivatives” (priority 1998, dated 2004):

System: recombinant human cytomegalovirus (HCMV)
Experiment: microbe, parasite or virus in culture
Type: cell-based
Details: CMV assay, Table 2; read-out: Antiviral Activity
Source text: Certain preferred compounds and compositions are capable of specifically inhibiting or suppressing cytomegalovirus infection. For the assessment of activity against human CMV, a method was used which is similar to that described in Kohler, et al., J. Virol. 68:6589-6597 (1994). Briefly, a recombinant human cytomegalovirus (HCMV) was made containing a marker gene (luciferase) under the control of the promoter for the late 28 kDa viral structural phosphoprotein pp28. Human foreskin fibroblast (HFF) cells were infected with the recombinant HCMV virus (MOI 5), placed into 96-well plates, and cultured under standard cell-culture conditions. Compounds that were evaluated for anti-HCMV activity were added to the infected cells 1 hour later. The level of luciferase expression was measured 24 hours after treatment with the test compounds. […] As an additional control, the cytotoxicity of test compounds on untreated HFF cells was also evaluated in cultured cell growth experiments.

First: Cc1cccc(CNc2nc(C)c([N+](=O)[O-])c(-n3ccnc3C)n2)c1
Second: Cc1nc(NCc2cccc(Cl)c2)nc(-n2ccnc2C)c1[N+](=O)[O-]
The IC50 of the first is higher: 100 to 500 nM for the first, < 100 nM for the second.

Compared with `Cc1nc(NCc2cccnc2)nc(-n2ccnc2C)c1[N+](=O)[O-]`, `Cc1nc(NCc2cccc(F)c2)nc(-n2ccnc2C)c1[N+](=O)[O-]` is lower in IC50: > 500 nM for the first, 100 to 500 nM for the second.

`CCc1nccn1-c1nc(NCc2ccc(F)cc2Cl)nc(C)c1[N+](=O)[O-]` and `Cc1nc(NCc2ccc(F)cc2Cl)nc(-n2ccnc2C)c1[N+](=O)[O-]` fall in the same range of IC50: 100 to 500 nM for the first, 100 to 500 nM for the second.

Compared with `Cc1ccc(CNc2nc(C)c([N+](=O)[O-])c(-n3ccnc3C)n2)cc1`, `Cc1nc(NCc2ccc(Cl)cc2)nc(-n2ccnc2C)c1[N+](=O)[O-]` is lower in IC50: > 500 nM for the first, 100 to 500 nM for the second.

`Cc1nc(NCc2cc(F)ccc2F)nc(-n2ccnc2C)c1[N+](=O)[O-]` and `Cc1nc(NCc2ccc(F)c(F)c2)nc(-n2ccnc2C)c1[N+](=O)[O-]` fall in the same range of IC50: 100 to 500 nM for the first, 100 to 500 nM for the second.

`Cc1nc(NCc2cc(F)cc(F)c2F)nc(-n2ccnc2C)c1[N+](=O)[O-]` and `Cc1nc(NCc2cc(F)c(F)c(F)c2)nc(-n2ccnc2C)c1[N+](=O)[O-]` fall in the same range of IC50: 100 to 500 nM for the first, 100 to 500 nM for the second.

`Cc1nc(NCc2ccc(F)c(C(F)(F)F)c2)nc(-n2ccnc2C)c1[N+](=O)[O-]` and `Cc1nc(NCc2cc(C(F)(F)F)ccc2F)nc(-n2ccnc2C)c1[N+](=O)[O-]` cannot be ordered by IC50: < 100 nM for the first, < 100 nM for the second.

`Cc1nc(NCc2ccc(F)c(F)c2F)nc(-n2ccnc2C)c1[N+](=O)[O-]` and `Cc1nc(NCc2c(F)ccc(F)c2F)nc(-n2ccnc2C)c1[N+](=O)[O-]` fall in the same range of IC50: 100 to 500 nM for the first, 100 to 500 nM for the second.

Compared with `Cc1ccccc1CNc1nc(C)c([N+](=O)[O-])c(-n2ccnc2)n1`, `Cc1ccccc1CNc1nc(C)c([N+](=O)[O-])c(-n2ccnc2C)n1` is lower in IC50: > 500 nM for the first, 100 to 500 nM for the second. The second is the more potent here.

Compared with `Cc1nc(NCc2ccc(Cl)c(Cl)c2)nc(-n2ccnc2C)c1[N+](=O)[O-]`, `Cc1nc(NCc2cc(Cl)ccc2Cl)nc(-n2ccnc2C)c1[N+](=O)[O-]` is lower in IC50: 100 to 500 nM for the first, < 100 nM for the second. The second is the more potent here.

First: CCC(Nc1nc(C)c([N+](=O)[O-])c(-n2ccnc2C)n1)c1ccccc1 (centres unmarked)
Second: Cc1nc(NCc2ccccc2Cl)nc(-n2ccnc2C)c1[N+](=O)[O-]
The IC50 of the first is higher: 100 to 500 nM for the first, < 100 nM for the second. The second is the more potent here.

`Cc1cccc(Cl)c1CNc1nc(C)c([N+](=O)[O-])c(-n2ccnc2C)n1` and `Cc1nc(NCc2c(F)cccc2Cl)nc(-n2ccnc2C)c1[N+](=O)[O-]` fall in the same range of IC50: 100 to 500 nM for the first, 100 to 500 nM for the second.

`Cc1nc(NCc2cccc(Cl)c2Cl)nc(-n2ccnc2C)c1[N+](=O)[O-]` and `Cc1nc(NCc2cc(Cl)cc(Cl)c2)nc(-n2ccnc2C)c1[N+](=O)[O-]` fall in the same range of IC50: 100 to 500 nM for the first, 100 to 500 nM for the second.

`COc1ccc(CNc2nc(C)c([N+](=O)[O-])c(-n3ccnc3C)n2)cc1OC` and `COc1cccc(CNc2nc(C)c([N+](=O)[O-])c(-n3ccnc3C)n2)c1` fall in the same range of IC50: 100 to 500 nM for the first, 100 to 500 nM for the second.

Compared with `Cc1nc(NCc2ccccn2)nc(-n2ccnc2C)c1[N+](=O)[O-]`, `Cc1nc(NCc2cccc(Br)c2)nc(-n2ccnc2C)c1[N+](=O)[O-]` is lower in IC50: 100 to 500 nM for the first, < 100 nM for the second.

`Cc1nc(NCc2ccc(F)cc2C(F)(F)F)nc(-n2ccnc2C)c1[N+](=O)[O-]` and `CCc1nccn1-c1nc(NCc2ccc(F)cc2C(F)(F)F)nc(C)c1[N+](=O)[O-]` fall in the same range of IC50: 100 to 500 nM for the first, 100 to 500 nM for the second.

Going from `Cc1nc(NCc2cc(F)cc(F)c2)nc(-n2ccnc2C)c1[N+](=O)[O-]` to `Cc1nc(NCc2cc(F)cc(F)c2)nc(-n2ccnc2)c1[N+](=O)[O-]`, the IC50 rises from < 100 nM to > 500 nM.

`CCc1nccn1-c1nc(NCc2c(F)cccc2Cl)nc(C)c1[N+](=O)[O-]` and `Cc1nc(NCc2ccc(F)cc2)nc(-n2ccnc2C)c1[N+](=O)[O-]` fall in the same range of IC50: 100 to 500 nM for the first, 100 to 500 nM for the second.

Compared with `Cc1nc(NCc2cccc(C(F)(F)F)c2)nc(-n2ccnc2C)c1[N+](=O)[O-]`, `Cc1nc(NCc2cc(C(F)(F)F)cc(C(F)(F)F)c2)nc(-n2ccnc2C)c1[N+](=O)[O-]` is higher in IC50: < 100 nM for the first, > 500 nM for the second. The first is the more potent here.

`Cc1nc(NCc2ccccc2OC(F)(F)F)nc(-n2ccnc2C)c1[N+](=O)[O-]` showed an IC50 of 100 to 500 nM.

Same assay, conditions: CMV assay, Table 3; read-out: Antiviral Activity

`Cc1nc(OCCc2ccccc2)nc(-n2ccnc2)c1[N+](=O)[O-]` [phenethyl/H/Me] and `Cc1nc(OCc2ccccc2)nc(-n2ccnc2)c1[N+](=O)[O-]` [benzyl/H/Me] cannot be ordered by IC50: > 500 nM for the first, > 500 nM for the second.

`COc1nc(C)c([N+](=O)[O-])c(-n2ccnc2C)n1` [methyl/Me/Me] and `CCOc1nc(C)c([N+](=O)[O-])c(-n2ccnc2C)n1` [ethyl/Me/Me] cannot be ordered by IC50: > 500 nM for the first, > 500 nM for the second.

`CCCOc1nc(C)c([N+](=O)[O-])c(-n2ccnc2)n1` [n-propyl/H/Me] and `CCCCOc1nc(C)c([N+](=O)[O-])c(-n2ccnc2)n1` [n-butyl/H/Me] cannot be ordered by IC50: > 500 nM for the first, > 500 nM for the second.

`Cc1nc(OCCC(C)(C)C)nc(-n2ccnc2)c1[N+](=O)[O-]` [3,3-dimethyl-1-butyl/H/Me] and `COC(C)CCOc1nc(C)c([N+](=O)[O-])c(-n2ccnc2)n1` (centres unmarked) [3-methoxy-1-butyl/H/Me] cannot be ordered by IC50: > 500 nM for the first, > 500 nM for the second.

`Cc1nc(OCCC(C)(C)C)nc(-n2ccnc2C)c1[N+](=O)[O-]` [3,3-dimethyl-1-butyl/Me/Me] and `CCCCOc1nc(C)c([N+](=O)[O-])c(-n2ccnc2C)n1` [n-butyl/Me/Me] cannot be ordered by IC50: > 500 nM for the first, > 500 nM for the second.

In the case of `COC(C)CCOc1nc(C)c([N+](=O)[O-])c(-n2ccnc2C)n1` (centres unmarked) [3-methoxy-1-butyl/Me/Me], the IC50 is reported as > 500 nM.

Same assay, conditions: CMV assay, Table 4; read-out: Antiviral Activity

Compared with `Cc1nc(N(C)C2CCc3ccccc32)nc(-n2ccnc2C)c1[N+](=O)[O-]` (centres unmarked), `Cc1nc(NC2CCc3ccccc32)nc(-n2ccnc2C)c1[N+](=O)[O-]` (centres unmarked) is lower in IC50: 100 to 500 nM for the first, < 100 nM for the second.

Compared with `Cc1nc(NC2CCc3cc(F)ccc32)nc(-n2ccnc2)c1[N+](=O)[O-]` (centres unmarked), `Cc1nc(NC2CCc3c(F)cccc32)nc(-n2ccnc2)c1[N+](=O)[O-]` (centres unmarked) is higher in IC50: < 100 nM for the first, 100 to 500 nM for the second. The first is the more potent here.

First: Cc1nc(NC2CCc3c(F)cccc32)nc(-n2ccnc2C)c1[N+](=O)[O-] (centres unmarked)
Second: Cc1nc(NC2CCc3c(Cl)cccc32)nc(-n2ccnc2C)c1[N+](=O)[O-] (centres unmarked)
The IC50 of the first is lower: 100 to 500 nM for the first, > 500 nM for the second.

`COC1c2ccccc2CC1Nc1nc(C)c([N+](=O)[O-])c(-n2ccnc2)n1` (centres unmarked) and `COC1c2ccccc2CC1Nc1nc(C)c([N+](=O)[O-])c(-n2ccnc2C)n1` (centres unmarked) cannot be ordered by IC50: > 500 nM for the first, > 500 nM for the second.

`Cc1nc(NC2CCc3cc(F)c(F)cc32)nc(-n2ccnc2C)c1[N+](=O)[O-]` (centres unmarked) and `CCc1nccn1-c1nc(NC2CCc3cc(F)c(F)cc32)nc(C)c1[N+](=O)[O-]` (centres unmarked) fall in the same range of IC50: 100 to 500 nM for the first, 100 to 500 nM for the second.

`Cc1nc(NC2CCc3cc(Br)ccc32)nc(-n2ccnc2C)c1[N+](=O)[O-]` (centres unmarked) and `Cc1nc(NC2CCc3cc(F)ccc32)nc(-n2ccnc2C)c1[N+](=O)[O-]` (centres unmarked) fall in the same range of IC50: 100 to 500 nM for the first, 100 to 500 nM for the second.

First: Cc1nc(NC2CCc3c(F)ccc(F)c32)nc(-n2ccnc2)c1[N+](=O)[O-] (centres unmarked)
Second: Cc1nc(NC2CCc3c(F)ccc(F)c32)nc(-n2ccnc2C)c1[N+](=O)[O-] (centres unmarked)
The IC50 of the first is higher: 100 to 500 nM for the first, < 100 nM for the second.

`CCc1nccn1-c1nc(NC2CCc3ccccc32)nc(C)c1[N+](=O)[O-]` (centres unmarked) and `CCc1nccn1-c1nc(NC2CCc3c(F)cccc32)nc(C)c1[N+](=O)[O-]` (centres unmarked) fall in the same range of IC50: 100 to 500 nM for the first, 100 to 500 nM for the second.

`Cc1nc(NC2CCc3ccc(Cl)cc32)nc(-n2ccnc2C)c1[N+](=O)[O-]` (centres unmarked) and `Cc1nc(NC2CCCc3ccccc32)nc(-n2ccnc2C)c1[N+](=O)[O-]` (centres unmarked) fall in the same range of IC50: 100 to 500 nM for the first, 100 to 500 nM for the second.

`Cc1nc(NC2COc3ccccc32)nc(-n2ccnc2C)c1[N+](=O)[O-]` (centres unmarked) and `Cc1nc(NC2Cc3ccccc3C2(C)C)nc(-n2ccnc2C)c1[N+](=O)[O-]` (centres unmarked) fall in the same range of IC50: 100 to 500 nM for the first, 100 to 500 nM for the second.

Going from `Cc1nc(NC2CCc3ccccc32)nc(-n2ccnc2)c1[N+](=O)[O-]` (centres unmarked) to `Cc1nc(NC2Cc3ccccc3C2(C)C)nc(-n2ccnc2)c1[N+](=O)[O-]` (centres unmarked), the IC50 rises from < 100 nM to > 500 nM.

First: CCc1nccn1-c1nc(NC2Cc3ccccc3C2)nc(C)c1[N+](=O)[O-]
Second: CCc1nccn1-c1nc(NC2CCc3c(F)ccc(F)c32)nc(C)c1[N+](=O)[O-] (centres unmarked)
The IC50 of the first is higher: > 500 nM for the first, < 100 nM for the second. The second is the more potent here.

In the case of `Cc1nc(NC2CCc3cc(F)c(F)cc32)nc(-n2ccnc2)c1[N+](=O)[O-]` (centres unmarked), the IC50 is reported as 100 to 500 nM.

Same assay, conditions: Human betaherpesvirus 5, HFF, 24 h

With `Cc1nc(N2CCN(Cc3ccccc3)CC2)nc(-n2ccnc2C)c1[N+](=O)[O-]` [u, 2-(4-benzylpiperazin-1-yl)-4-(2-methylimidazol-1-yl)-6-methyl-5-nitropyrimidine] the IC50 was 100 nM.

System: not given
Experiment: not given
Details: not given

First: CC[C@H]1CCCC[C@H]1Nc1nc(C)c([N+](=O)[O-])c(-n2ccnc2)n1 (relative stereo)
Second: Cc1nc(NC2Cc3ccccc3C2)nc(-n2ccnc2)c1[N+](=O)[O-] [2-(2-indanamino)-4-imidazol-1-yl-6-methyl-5-nitropyriridine]
The melting point of the first is lower: 123 to 124 °C for the first, 177 to 178 °C for the second.

Compared with `Cc1nc(NC2Cc3ccccc3C2)nc(-n2ccnc2C)c1[N+](=O)[O-]` [2-(2-indanamino)-4-(2-methylimidazol-1-yl)-6-methyl-5-nitropyrimidine], `Cc1nc(NC2Cc3ccccc3C2)nc(-n2ccnc2C)c1[N+](=O)[O-].Cl` is lower in melting point: 203 to 204 °C for the first, 184 to 185 °C for the second.

First: Cc1nc(NC2CCc3c(F)cc(F)cc32)nc(-n2ccnc2C)c1[N+](=O)[O-] (centres unmarked) [2-(4,6-difluoro-1-indanamino)-4-(2-methylimidazol-1-yl)-6-methyl-5-nitropyrimidine]
Second: CCc1nccn1-c1nc(NC2CCc3c(F)cc(F)cc32)nc(C)c1[N+](=O)[O-] (centres unmarked) [2-(4,6-difluoro-1-indanamino)-4-(2-ethylimidazol-1-yl)-6-methyl-5-nitropyrimidine]
The melting point of the first is higher: 164 to 165 °C for the first, 88 to 89 °C for the second.

With `Cc1nc(NC2CCc3c(F)cc(F)cc32)nc(-n2ccnc2)c1[N+](=O)[O-]` (centres unmarked) [2-(4,6-difluoro-1-indanamino)-4-(imidazol-1-yl)-6-methyl-5-nitropyrimidine] the melting point was 175 to 176 °C.
